In PubChem BioAssay (NCI):
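Five concentrations, 48 hours, 96-well plates. The concentration for 50% growth inhibition is given as GI50. The concentration for full growth arrest is given as TGI.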

What was measured:
Experiment in all cases: DTP human tumour cell line panel, 48 h
SK-MEL-2 melanoma = test system: SK-MEL-2 melanoma
OVCAR-3 ovarian = test system: OVCAR-3 ovarian
HCT-15 colon = test system: HCT-15 colon
MDA-MB-231 breast = test system: MDA-MB-231 breast
HCC-2998 colon = test system: HCC-2998 colon
OVCAR-5 ovarian = test system: OVCAR-5 ovarian
UO-31 renal = test system: UO-31 renal
CAKI-1 renal = test system: CAKI-1 renal
MDA-MB-435 = test system: MDA-MB-435
UACC-62 melanoma = test system: UACC-62 melanoma

Structure (SMILES) | GI50 (SK-MEL-2 melanoma) | TGI (SK-MEL-2 melanoma) | GI50 (OVCAR-3 ovarian) | TGI (OVCAR-3 ovarian) | GI50 (HCT-15 colon) | TGI (HCT-15 colon) | GI50 (MDA-MB-231 breast) | TGI (MDA-MB-231 breast) | GI50 (HCC-2998 colon) | TGI (HCC-2998 colon) | GI50 (OVCAR-5 ovarian) | TGI (OVCAR-5 ovarian) | GI50 (UO-31 renal) | TGI (UO-31 renal) | GI50 (CAKI-1 renal) | TGI (CAKI-1 renal) | GI50 (MDA-MB-435) | TGI (MDA-MB-435) | GI50 (UACC-62 melanoma) | TGI (UACC-62 melanoma)
C[C@@]1(C(=O)O)CCC[C@]2(C)C1CC[C@]13C[C@@](O)(CO)[C@](O)(CC[C@]12O)C3 (some centres not stated) | > 100 µM | > 100 µM | > 100000 nM | > 100 µM | > 100000 nM | > 100 µM | > 100000 nM | > 100 µM | > 100000 nM | > 100 µM | > 100000 nM | > 100 µM | > 100000 nM | > 100 µM | > 100000 nM | > 100 µM | > 100000 nM | > 100 µM | > 100000 nM | > 100 µM
CCCCSc1nc(N)c2cn[nH]c2n1 | 22.2 µM | > 64.6 µM | 17100 nM | 35.1 µM | 32900 nM | > 100 µM | 15500 nM | 35.2 µM | 220 nM | 2.26 µM | 16600 nM | 54.3 µM | 26200 nM | > 80.4 µM | 18200 nM | 44.4 µM | 21000 nM | 41.8 µM | 16800 nM | 40.8 µM
COc1c(-c2ccc3c(c2)OCO3)oc2cc(O)cc(O)c2c1=O |  | > 100 µM |  |  |  | > 100 µM |  | > 100 µM |  | > 100 µM |  | > 100 µM |  | > 100 µM |  | 86.4 µM |  | > 100 µM |  | > 100 µM
O=C1C(Cl)=C(Cl)C(=O)N1c1ccc(F)cc1 |  | > 72.8 µM |  | 32.4 µM |  | 34 µM |  | 33 µM |  | 48.1 µM |  | 41 µM |  | 48.8 µM |  | 21 µM |  | 34.9 µM |  | 31.7 µM
CSc1ccc(NC(=O)Nc2cc(C)ccn2)cc1 |  | > 100 µM |  | > 100 µM |  | > 100 µM |  | > 100 µM |  | > 100 µM |  | > 100 µM |  | > 100 µM |  | > 100 µM |  | > 100 µM |  | > 100 µM
Cc1c(Cl)cccc1NC(=O)c1sc2nc3c(cc2c1N)C(=O)CCC3 | 0.044 µM | > 56 µM | 48 nM | 0.53 µM | 66.5 nM | > 100 µM | 138 nM | 16.5 µM | 201 nM | > 60 µM | 283 nM | > 100 µM | 68.2 nM | > 91.5 µM | 46.1 nM | > 100 µM | 20.3 nM | 0.0488 µM | 50.2 nM | > 100 µM
Cc1ccc(N=Nc2c(O)ccc3n[nH]nc23)cc1 | 19 µM | 59.4 µM | 4310 nM | 22.2 µM | 12300 nM | 92.4 µM | 13000 nM | > 100 µM | 26200 nM | > 100 µM | 43500 nM | > 100 µM | 11700 nM | 44.9 µM | 4630 nM | 38.9 µM | 4470 nM | 37.5 µM | 4520 nM | 47.7 µM
Cn1cc(C2=C(c3cc[nH]c3)C(=O)NC2=O)c2ccccc21 | > 25 µM | > 25 µM | > 22700 nM | > 25 µM | > 25000 nM | > 25 µM | > 25000 nM | > 25 µM | > 25000 nM | > 25 µM | > 25000 nM | > 25 µM | > 18500 nM | > 25 µM | > 25000 nM | > 25 µM | 19700 nM | > 25 µM | > 25000 nM | > 25 µM
Cc1nc2sc(C(=O)Nc3ccccc3)c(N)c2cc1C(O)c1ccccc1 (configuration not stated) | 0.659 µM | > 100 µM | 263 nM | 3.3 µM | 170 nM | > 100 µM | 411 nM | > 64.6 µM | 329 nM | 6.27 µM | 565 nM | > 88.1 µM | 727 nM | > 60.9 µM | 243 nM | > 100 µM | 30.8 nM | 0.102 µM | 382 nM | > 48.3 µM
CNCC(=O)NC(CO)C(=O)NC(CO)C(=O)NC1C(C(N)=O)OC(n2ccc(N)nc2=O)C(O)C1O (configuration not stated) | 4.58 µg/mL | 23.7 µg/mL | 8.43 µg/mL | 29.6 µg/mL | 15.8 µg/mL | > 50 µg/mL | > 50 µg/mL | > 50 µg/mL | 20.6 µg/mL | > 50 µg/mL | 9.43 µg/mL | > 50 µg/mL | 12.4 µg/mL | > 50 µg/mL | 15.7 µg/mL | > 50 µg/mL | 41.9 µg/mL | > 50 µg/mL | 2.88 µg/mL | 16.8 µg/mL
COC(=O)c1c2c(c(C)[n+]([O-])c1C)C(=O)C(NCc1ccc(F)cc1)=CC2=O | 1.75 µM | 4.03 µM | 319 nM | 1.11 µM | 1230 nM | 3 µM | 1460 nM | 4.36 µM | 1790 nM | 4.57 µM | 1800 nM | 3.59 µM | 1670 nM | 3.77 µM | 2060 nM | 6 µM | 582 nM | 1.84 µM | 1250 nM | 2.65 µM
CC1=NN(c2cccc(Cl)c2)C(=O)/C1=C\C=C\c1ccccc1 | 3.85 µM | 16.7 µM | 2180 nM | 4.4 µM | 2270 nM | 5.68 µM | 2270 nM | 7.47 µM | 1910 nM | 3.45 µM | 2810 nM | 7.83 µM | 1620 nM | 3.49 µM | 1890 nM | 4.49 µM | 2500 nM | 7.37 µM | 1760 nM | 3.87 µM
Cc1nn(Cc2ccccc2)cc1C(=O)Nc1sc2c(c1C(N)=O)CCC(=O)C2 | 2.12 µM | 5.2 µM | 1700 nM | 3.43 µM | 1630 nM | 3.72 µM | 2000 nM | 4.86 µM | 2560 nM | 7.41 µM | 1920 nM | 4.3 µM | 1390 nM | 2.88 µM | 1420 nM | 2.92 µM | 1980 nM | 4.45 µM | 1590 nM | 3.4 µM
Cc1cc2c3c([n+](C)c4ccc(F)cc4c3c1)-c1cc(F)ccc1N2C | 10.9 µM | 28.6 µM | 12000 nM | 61.8 µM | > 100000 nM | > 100 µM | 24300 nM | 85.3 µM | 3990 nM | 16.5 µM | > 100000 nM | > 100 µM | > 100000 nM | > 100 µM | > 100000 nM | > 100 µM | 13700 nM | 55 µM |  | 
